In ChEMBL document CHEMBL3886724, “Oxazolidinone compounds and derivatives thereof” (2016):

Target: T1, Poly [ADP-ribose] polymerase tankyrase-1 (Homo sapiens, UniProt O95271)
T1 sequence (O95271 whole entry): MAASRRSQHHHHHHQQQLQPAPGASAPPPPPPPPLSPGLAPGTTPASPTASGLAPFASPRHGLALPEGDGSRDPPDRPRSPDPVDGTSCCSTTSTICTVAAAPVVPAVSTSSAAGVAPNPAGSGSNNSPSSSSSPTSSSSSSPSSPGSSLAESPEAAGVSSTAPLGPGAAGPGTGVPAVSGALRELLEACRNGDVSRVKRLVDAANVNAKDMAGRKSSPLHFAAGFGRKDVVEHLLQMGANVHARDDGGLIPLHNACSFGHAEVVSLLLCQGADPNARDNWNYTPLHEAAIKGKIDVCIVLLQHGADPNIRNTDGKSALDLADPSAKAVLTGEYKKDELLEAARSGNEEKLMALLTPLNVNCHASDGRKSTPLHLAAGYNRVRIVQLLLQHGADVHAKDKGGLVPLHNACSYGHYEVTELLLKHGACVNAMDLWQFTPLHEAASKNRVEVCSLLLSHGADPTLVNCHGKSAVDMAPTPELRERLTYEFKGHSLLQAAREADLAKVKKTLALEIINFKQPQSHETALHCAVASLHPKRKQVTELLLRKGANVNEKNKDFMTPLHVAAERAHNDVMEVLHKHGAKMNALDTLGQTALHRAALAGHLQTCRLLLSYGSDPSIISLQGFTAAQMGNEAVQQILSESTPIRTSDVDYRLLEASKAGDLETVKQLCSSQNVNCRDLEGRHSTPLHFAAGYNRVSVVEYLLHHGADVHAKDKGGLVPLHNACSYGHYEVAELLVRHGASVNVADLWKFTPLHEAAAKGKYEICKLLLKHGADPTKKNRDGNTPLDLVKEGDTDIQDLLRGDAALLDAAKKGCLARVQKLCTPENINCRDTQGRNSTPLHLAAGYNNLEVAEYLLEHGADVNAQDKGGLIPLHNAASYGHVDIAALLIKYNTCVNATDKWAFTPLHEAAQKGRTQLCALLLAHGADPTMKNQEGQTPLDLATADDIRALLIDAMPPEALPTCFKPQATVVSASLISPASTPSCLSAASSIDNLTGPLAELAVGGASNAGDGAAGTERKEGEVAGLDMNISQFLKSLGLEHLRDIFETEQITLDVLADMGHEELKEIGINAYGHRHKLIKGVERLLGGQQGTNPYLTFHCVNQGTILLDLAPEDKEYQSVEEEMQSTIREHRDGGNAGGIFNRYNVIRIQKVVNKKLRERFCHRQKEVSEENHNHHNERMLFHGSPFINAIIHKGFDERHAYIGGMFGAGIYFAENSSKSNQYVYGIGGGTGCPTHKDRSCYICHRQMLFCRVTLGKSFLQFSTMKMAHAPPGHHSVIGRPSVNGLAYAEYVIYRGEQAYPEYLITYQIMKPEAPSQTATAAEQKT
Assay: Tankyrase Biochemical Assays: The tankyrase 1 biochemical activity of the compounds was assayed in the following assay buffer (50 mM MOPS pH7.5, 100 mM NaCl, […] MgCl2, 0.01% Tween-20, 0.05% BSA, and 1 mM DTT) as follows: […] of 6×HIS-tankyrase 1 (1091-1325) was incubated in the presence of compound (DMSO […] final) in a Perkin Elmer 384 well Proxiplate Plus™ (cat. no. 6008289) with 400 n

Row | SMILES | IC50 [nM]
1 | CC1(C)OC(=O)N(c2ccc(-c3cc(-c4ncco4)c[nH]c3=O)cc2)[C@H]1c1ccccc1 | 167
2 | CC1(C)OC(=O)N([C@H]2CC[C@H](NC(=O)c3ccnc(-c4ccccc4)n3)CC2)[C@H]1c1ccccc1 | 11.4
3 | CC1(C)OC(=O)N([C@H]2CC[C@H](NC(=O)c3csc(-c4ccccc4)n3)CC2)[C@H]1c1ccccc1 | 5.18
